Measured values as given in US10568898B2, “Lipophilic nanoparticles for drug delivery” (priority 2013, dated 2020).

Tests used:
Ramos cells = assay type: cell-based; conditions: FIG. 7, free doxorubicin at 100 nM-1 μM, HDL-Andrographolide NP at 5 nM
Procedure: For suspension cell lines (Ramos, Jurkat, and SUDHL4), confluent cells were deposited onto 96-well plates at 1×10^5 cells/mL, then treated with either: 1-10 nM HDL NP, 1-10 nM HDL-drug NP, 10 nM-1 μM free drug, or 10 nM human HDL. All solutions were in 1% PBS, in a total volume of 100 μL. Cells were incubated for 48 hours with the treatment, then assessed for viability using a 3-(4,5-dimethylthiazol-2-yl)-5-(3-carboxymethoxyphenyl)-2-(4-sulfo-phenyl)-2H-tetrazolium (MTS) cell proliferation assay. 20 μL of the MTS solution (G1112; Promega) was added to each well; absorbance at 490 nm was measured immediately and after 90 min. Survival for a sample was presented as absorbance for that sample at 90 min, compared to absorbance for the non-treated control at 90 min. Since metabolically active cells reduce MTS, lower absorbance indicates cell death.
Cytotoxicity of the HDL-Doxorobucin NPs was assessed by incubating with lymphoma cells in culture for 48-72 hours, and measuring cell viability by a 3-(4,5-dimethylthiazol-2-yl)-5-(3-carboxymethoxyphenyl)-2-(4-sulfophenyl)-2H-tetrazolium (MTS) assay. […]
For suspension cell lines (Ramos and SUDHL4), 90 μl confluent cells were deposited into 96-well plates at 1×10^5 cells/mL, then treated with 10 μl of either: 1-10 nM HDL NP, 1-10 nM HDL-drug NP, 10 nM-1 μM free drug, 10 nM human HDL, or PBS. […] Cells were incubated for 48 hours with the treatment, and then assessed for viability using a 3-(4,5-dimethylthiazol-2-yl)-5-(3-carboxymethoxyphenyl)-2-(4-sulfo-phenyl)-2H-tetrazolium (MTS) cell proliferation assay. Twenty μL of the MTS solution (G1112; Promega) was added to each well; absorbance at 490 nm was measured immediately and after 90 minutes. […] Cell viability was calculated according to the following formula: Cell viability=(OD490, 90 min(sample)−OD490, 90 min(0% survival control))/(OD490, 90 min(100% survival control)−OD490, 90 min(0% survival control))×100%
Cytotoxicity of the Dox-HDL-NPs was assessed by incubating Dox-HDL-NP, HDL-NP, or free doxorubicin at varying doses with different lymphoma cell lines. […]

H9c2 cells = conditions: 48- and 72-hour treatment, same concentrations as lymphoma lines
Procedure: For adherent lines (LNCaP, MDA-MB-231, and H9c2), cells were deposited onto 96-well plates at a concentration of 5×10^4 cells/mL, 24 hours prior to treatment. Cells were then treated, incubated, and assessed as described above for the suspension cells.
The effects of Dox-HDL-NP and free doxorubicin in H9c2 cardiomyoblasts, a rat-derived cardiomyocyte cell line that has been used extensively in mechanistic studies of doxorubicin toxicity in heart cells, have been studied.

[1] = clinical use; cited from earlier work
[2] = tested on: LNCaP adenocarcinoma cell lines; assay: Fluorescence microscopy of doxorubicin uptake; assay type: cell-based, human; conditions: 18 hours after treatment
Procedure: To further confirm delivery of doxorubicin to cancer cells with HDL-NP, LNCaP adenocarcinoma cell lines were assessed by fluorescence microscopy after treatment with free doxorubicin, Dox-HDL-NP, and HDL-NP.

Row | SMILES | killing effect (Ramos cells) | cell viability in cardiomyoblasts (H9c2 cells) | cumulative dose above which cardiotoxicity typically occurs [1] | doxorubicin fluorescence in cells [2]
1 | C=C1CC[C@@H]2[C@](C)(CO)[C@H](O)CC[C@@]2(C)[C@@H]1C/C=C1/C(=O)OC[C@H]1O [Andrographolide] | slight protective effect on cells | – | – | –
2 | CC[C@]1(O)C[C@H]2CN(CCc3c([nH]c4ccccc34)[C@@](C(=O)OC)(c3cc4c(cc3OC)N(C=O)[C@H]3[C@@](O)(C(=O)OC)[C@H](OC(C)=O)[C@]5(CC)C=CCN6CC[C@]43[C@@H]65)C2)C1 [Vincristine] | kills with comparable efficiency to the bare HDL NP | – | – | –
3 | COc1cccc2c1C(=O)c1c(O)c3c(c(O)c1C2=O)C[C@@](O)(C(=O)CO)C[C@@H]3O[C@H]1C[C@H](N)[C@H](O)[C@H](C)O1 [doxorubicin] | substantial killing effect | significant reduction in viability | exceeds 450 mg/m^2 of body surface area | fluorescence was clearly seen
